Data: patent publication US10239887B2, “Positive allosteric modulators of the muscarinic acetylcholine receptor M4” (Vanderbilt University, priority 2016, dated 2019)
≈ marks a conversion by molar mass, not a printed value.

Assays:
[1] = intrinsic clearance, human; format: in vitro ADME
Description: (§1) Compound 76 was in several in vitro assays to investigate both metabolism and pharmacokinetics. These assays were performed according to known methods as generally described in the following references: Conde-Ceide et al. ACS Med. Chem. Lett. 2015, 6, 716-720; Morris et al. J. Med. Chem. 2014, 57, 10192-10197; and Bubser et al. ACS Chem. Neurosci. 2014, 5, 920-942.

[2] = target: P450 2C9 (Homo sapiens, UniProt P11712); assay: P450 2C9 inhibition; format: in vitro ADME
Description: as §1

[3] = in vivo DMPK, dog; conditions: 3 mg/kg
[4] = tested on: MDCK-MDR1; assay: MDCK-MDR1 permeability and efflux; format: in vitro ADME; conditions: efflux ratio
Description: as §1

[5] = MDCK-MDR1 permeability and efflux; format: in vitro ADME; conditions: dog, MDCK-MDR1
Description: as §1

[6] = target: cynomolgus monkey M4 (Macaca fascicularis, UniProt G7PQB4); assay: mAChR M4 cell-based functional assay (calcium flux), cyno M4; conditions: CHO-K1 cells
[7] = tested on: amphetamine-induced hyperlocomotion; assay: amphetamine-induced hyperlocomotion in rats; format: in vivo, male Sprague-Dawley rats; conditions: for percent reversal of amphetamine-induced hyperlocomotion: rat, 1 mg/kg amphetamine s.c.
Description: d-Amphetamine hemisulfate was obtained from Sigma (St. Louis, Mo.). Salt-correction was used to determine the correct amount of the d-amphetamine hemisulfate form in milligrams to add to sterile water in order to yield a […] solution, which would be dosed at 1 mL/kg body weight of each animal. […] The solutions were formulated so that animals were injected with a volume equal to 10 mL/kg body weight for all compounds. The appropriate amount according to the dosage was mixed in 10% Tween 80 (Sigma) in sterile water. The mixtures were then vortexed and stored in a 39° C. sonication bath for 1 hour, until in a microsuspension (except for the highest dose, which was a suspension).
Male Sprague-Dawley rats weighing 239-300 grams and averaging 265 g (Harlan, Inc., Indianapolis, Ind.) were used. They were housed in the animal care facility certified by the American Association for the Accreditation of Laboratory Animal Care (AALAC) under a 12-hour light/dark cycle (lights on: 6 a.m.; lights off: 6 p.m.) and had free access to food and water. The animals used in this experiment were food-deprived the evening before experimentation for oral dosing of compound/vehicle. The experimental protocols performed during the light cycle were approved by the Institutional Animals Care and Use Committee of Vanderbilt University and conformed to the guidelines established by the National Research Council Guide for the Care and Use of Laboratory Animals.
Male Harlan Sprague Dawley rats were habituated in Smart Open Field locomotor activity test chambers (Hamilton-Kinder, San Diego, Calif.) with 16×16 photo beams to automatically record locomotor activity. […] They were monitored for an additional 30 minutes and then injected subcutaneously with vehicle or 1 mg/kg amphetamine. Animals were then monitored for an additional 60 minutes, for a total of 120 minutes. Data were expressed as changes in ambulation defined as total number of beam breaks per 5 minute interval. Terminal brain and plasma samples were collected at the end of the study for pharmacokinetic analysis.
Behavioral data were analyzed using a two-way ANOVA with main effects of treatment and time. Post hoc analysis was performed using a Dunnett's t-test with all treatment groups compared to the VAMP group using GraphPad Prism V.5.04 (GraphPad Software, San Diego, Calif.). Data were graphed using GraphPad Prism V.5.04 (GraphPad Software, San Diego, Calif.). A probability of p<0.05 was taken as the level of statistical significance. In addition, the total number of beam breaks from the amphetamine administration (65 min) to the end of the study (120 min) was calculated and graphed. Percent Reversal was calculated as follows using Microsoft Excel: In each animal, total ambulation from t=65 to t=120 was summed. The mean of each sum was calculated in the VAMP group. Then, for each animal, Percent Reversal was calculated with the following formula: Percent Reversal=100−{[(total ambulation in each animal from t=65 to t=120)/(mean of each sum from t=65 to t=120 in VAMP group)]*100}. The mean Percent Reversal, as well as the standard error, was calculated for each dose group using GraphPad Prism V5.04.

[8] = in vivo; conditions: cynomolgus monkey
[9] = target: T1, human mAChR M4 (Homo sapiens, UniProt P08173); assay: mAChR M4 cell-based functional assay (calcium flux), human M4; conditions: Human M4; % ACh maximum at 30 μM
T1 sequence (P08173 1-479): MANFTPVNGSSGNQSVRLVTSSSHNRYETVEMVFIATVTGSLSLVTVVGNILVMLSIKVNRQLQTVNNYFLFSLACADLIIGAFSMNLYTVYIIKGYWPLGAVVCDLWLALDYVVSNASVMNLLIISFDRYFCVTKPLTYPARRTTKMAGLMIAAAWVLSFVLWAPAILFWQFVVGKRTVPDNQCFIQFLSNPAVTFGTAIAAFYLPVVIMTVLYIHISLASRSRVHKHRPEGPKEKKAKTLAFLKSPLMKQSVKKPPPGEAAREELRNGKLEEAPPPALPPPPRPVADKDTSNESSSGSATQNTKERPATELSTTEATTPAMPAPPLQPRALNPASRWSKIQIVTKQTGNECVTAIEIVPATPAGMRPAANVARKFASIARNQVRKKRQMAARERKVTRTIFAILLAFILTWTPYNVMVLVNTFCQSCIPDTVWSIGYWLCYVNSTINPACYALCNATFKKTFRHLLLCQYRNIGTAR

[10] = solubility (aqueous, faSSIF, SGF); format: physicochemical
[11] = target: P450 3A4 (Homo sapiens, UniProt P08684); assay: P450 3A4 inhibition; format: in vitro ADME
Description: as §1

[12] = fraction unbound in plasma, cyno; format: in vitro ADME; conditions: cynomolgus monkey, read-out: Cyno Fu (plasma)
Description: as §1

[13] = intrinsic clearance, dog; format: in vitro ADME
Description: as §1

Chain of P450 3A4 (P08684 whole entry): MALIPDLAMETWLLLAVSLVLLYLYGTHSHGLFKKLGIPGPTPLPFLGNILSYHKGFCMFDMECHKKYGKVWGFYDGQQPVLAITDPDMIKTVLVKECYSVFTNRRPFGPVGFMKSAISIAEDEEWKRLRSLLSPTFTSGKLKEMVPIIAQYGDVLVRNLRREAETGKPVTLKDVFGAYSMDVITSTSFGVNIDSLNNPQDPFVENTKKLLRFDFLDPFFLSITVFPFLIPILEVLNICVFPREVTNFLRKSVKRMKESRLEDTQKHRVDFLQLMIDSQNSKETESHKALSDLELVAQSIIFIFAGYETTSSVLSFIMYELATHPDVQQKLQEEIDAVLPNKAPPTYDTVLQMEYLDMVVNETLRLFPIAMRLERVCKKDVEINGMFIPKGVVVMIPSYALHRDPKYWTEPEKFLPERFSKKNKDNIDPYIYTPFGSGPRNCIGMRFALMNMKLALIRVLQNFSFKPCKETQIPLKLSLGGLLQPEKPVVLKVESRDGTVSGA
Chain of P450 2C9 (P11712 whole entry): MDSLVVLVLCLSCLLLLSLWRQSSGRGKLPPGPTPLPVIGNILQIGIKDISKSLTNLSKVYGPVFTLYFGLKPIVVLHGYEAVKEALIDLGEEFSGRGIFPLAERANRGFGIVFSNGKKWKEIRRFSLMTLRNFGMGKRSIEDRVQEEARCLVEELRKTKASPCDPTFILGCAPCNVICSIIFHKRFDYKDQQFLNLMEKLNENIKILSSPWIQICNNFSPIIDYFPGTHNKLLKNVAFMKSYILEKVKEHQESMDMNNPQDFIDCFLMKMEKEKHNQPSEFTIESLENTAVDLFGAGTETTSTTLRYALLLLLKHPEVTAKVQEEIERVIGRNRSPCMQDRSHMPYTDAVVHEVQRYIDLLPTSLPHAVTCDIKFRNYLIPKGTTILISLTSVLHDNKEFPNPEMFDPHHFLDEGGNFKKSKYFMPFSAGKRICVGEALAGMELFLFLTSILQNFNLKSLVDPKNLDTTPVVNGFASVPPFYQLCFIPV
Chain of cynomolgus monkey M4 (G7PQB4 1-479): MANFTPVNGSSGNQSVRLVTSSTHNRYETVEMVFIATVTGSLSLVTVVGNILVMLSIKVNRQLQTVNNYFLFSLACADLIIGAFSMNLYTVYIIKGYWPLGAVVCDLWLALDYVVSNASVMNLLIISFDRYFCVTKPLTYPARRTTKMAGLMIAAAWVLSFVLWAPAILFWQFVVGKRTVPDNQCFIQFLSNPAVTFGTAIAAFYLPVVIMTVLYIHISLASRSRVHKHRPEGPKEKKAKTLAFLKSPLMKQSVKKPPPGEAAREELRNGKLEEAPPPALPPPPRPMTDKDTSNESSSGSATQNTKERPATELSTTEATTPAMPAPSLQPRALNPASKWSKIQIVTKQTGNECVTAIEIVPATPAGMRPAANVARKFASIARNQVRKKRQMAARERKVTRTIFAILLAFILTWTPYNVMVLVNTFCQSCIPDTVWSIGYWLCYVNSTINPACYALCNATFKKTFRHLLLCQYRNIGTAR

Cc1nnc2sc3c(NCc4ccc(C(C)(C)O)cc4)ncnc3c2c1C [Compound 76, 2-[4-[[(3,4-Dimethylpyrimido[4′,5′:4,5]thieno[2,3-c]pyridazin-8-yl)amino]methyl]phenyl]propan-2-ol]
CLint scaled [1]: 15 mL/min/kg | IC50 [2]: 16 µM | Dog oral F [3]: 54% | MDCK-MDR1 ER [4]: 3.1 (Papp A→B: | Papp A→B [5]: 20 ×10⁻⁶ cm/s | EC50 [6]: 0.12 µM | percent reversal of amphetamine-induced hyperlocomotion ([7]; 0.1 mg/kg p.o.): 8.1% | percent reversal of amphetamine-induced hyperlocomotion ([7]; 0.3 mg/kg p.o.): 32.8% | percent reversal of amphetamine-induced hyperlocomotion ([7]; 1 mg/kg p.o.): 50.7% | percent reversal of amphetamine-induced hyperlocomotion ([7]; 3 mg/kg p.o.): 44.3% | percent reversal of amphetamine-induced hyperlocomotion ([7]; 10 mg/kg p.o.): 62.8% | percent reversal of amphetamine-induced hyperlocomotion ([7]; […] p.o.): 25.6% | reversal of amphetamine-induced hyperlocomotion (in words) ([7]; systemic administration, similar extent as VU0467154 at 10 mg/kg p.o.): significant and sustained reversal | Kp ([8]; brain): 0.37 | Kp uu ([8]; brain): 0.62 | Vd ([8]; plasma): 0.9 L/kg | clearance ([8]; plasma): 5.3 mL/min/kg | half-life ([8]; plasma): 4.5 h | Emax [9]: 86% | solubility ([10]; aqueous medium (pH 7.4), pH 7.4, aqueous buffer): 166 µM (≈ 63 µg/mL) | SGF ([10]; solubility in SGF): 180 µM | faSSIF ([10]; solubility in faSSIF): 24 µM | IC50 [11]: 24 µM | fraction unbound [12]: 0.009 | CLint scaled [13]: 35 mL/min/kg
